Several values for one entry are separate records, joined by “and”; a condition that tells them apart may be missing. Identical values can stand only once. Inconclusive results and toxic doses are left out. Cut-off read from the data, not from the text of the source: active = T/C of 150% or more; inactive = T/C below 125%.
Test system: L1210 leukemia ip in BDF1 mice, survival T/C
Assay: NCI In Vivo Anticancer Drug Screen. Data for tumor model L1210 Leukemia (intraperitoneal) in B6D2F1 (BDF1) mice
Conditions: endpoint: mean survival time, higher = longer survival
Method in brief: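 Ratio derived from survival: compound-dosed mice over vehicle-dosed mice, all bearing a transplantable tumor.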

[1] = dose: 100.0 mg/kg/injection, schedule: Q01DX001 (ip), vehicle: saline
[2] = dose: 200.0 mg/kg/injection, schedule: Q01DX001 (ip), vehicle: saline
[3] = dose: 100.0 mg/kg/injection, schedule: Q04DX003 (ip), vehicle: Klucel (hydroxypropylcellulose) (HPC)
[4] = dose: 200.0 mg/kg/injection, schedule: Q04DX003 (ip), vehicle: Klucel (hydroxypropylcellulose) (HPC)
[5] = dose: 200.0 mg/kg/injection, schedule: Q01DX009 (ip), vehicle: Klucel (hydroxypropylcellulose) (HPC)
[6] = dose: 400.0 mg/kg/injection, schedule: Q01DX001 (ip), vehicle: saline
[7] = dose: 100.0 mg/kg/injection, schedule: Q01DX001 (ip), vehicle: saline with Tween-80
[8] = dose: 100.0 mg/kg/injection, schedule: Q01DX009 (ip), vehicle: Klucel (hydroxypropylcellulose) (HPC)
[9] = dose: 400.0 mg/kg/injection, schedule: Q01DX009 (ip), vehicle: Klucel (hydroxypropylcellulose) (HPC)
[10] = dose: 400.0 mg/kg/injection, schedule: Q04DX003 (ip), vehicle: Klucel (hydroxypropylcellulose) (HPC)
[11] = dose: 100.0 mg/kg/injection, schedule: Q01DX009 (ip), vehicle: saline with Tween-80
[12] = dose: 200.0 mg/kg/injection, schedule: Q01DX009 (ip), vehicle: saline with Tween-80
[13] = dose: 400.0 mg/kg/injection, schedule: Q01DX009 (ip), vehicle: saline with Tween-80
[14] = dose: 6.25 mg/kg/injection, schedule: Q01DX009 (ip), vehicle: saline
[15] = dose: 12.5 mg/kg/injection, schedule: Q01DX009 (ip), vehicle: saline
[16] = dose: 25.0 mg/kg/injection, schedule: Q01DX009 (ip), vehicle: saline
[17] = dose: 25.0 mg/kg/injection, schedule: Q04DX003 (ip), vehicle: saline
[18] = dose: 50.0 mg/kg/injection, schedule: Q04DX003 (ip), vehicle: saline
[19] = dose: 100.0 mg/kg/injection, schedule: Q04DX003 (ip), vehicle: saline

Measured: T/C

CC1=C2[C@H]3OC(=O)[C@@H](C)[C@@H]3CC[C@@]2(C)C=C/C1=N\O
inactive: [1] 101 % of control | [2] 98 % of control

O=CNc1ccc(Cl)cc1
inactive: dose: 25.0 mg/kg/injection, schedule: Q04DX003 (ip), vehicle: Klucel (hydroxypropylcellulose) (HPC) 92 % of control | dose: 50.0 mg/kg/injection, schedule: Q04DX003 (ip), vehicle: Klucel (hydroxypropylcellulose) (HPC) 92 % of control | [3] 87 % of control | [4] 97 % of control

Cn1nc(CC(=O)O)c(C(N)=O)c1N
inactive: dose: 12.5 mg/kg/injection, schedule: Q01DX009 (ip), vehicle: Klucel (hydroxypropylcellulose) (HPC) 93 % of control | dose: 25.0 mg/kg/injection, schedule: Q01DX009 (ip), vehicle: Klucel (hydroxypropylcellulose) (HPC) 101 % of control | dose: 50.0 mg/kg/injection, schedule: Q01DX009 (ip), vehicle: Klucel (hydroxypropylcellulose) (HPC) 96 % of control and 102 % of control | [5] 98 % of control

Cc1ccc(C(C)(N=[N+]=[N-])c2ccccc2)cc1C (stereo unspecified)
inactive: [1] 93 % of control | [2] 96 % of control | [6] 109 % of control

COc1cccc(-c2nc3ccccc3s2)c1OC
inactive: dose: 25.0 mg/kg/injection, schedule: Q04DX003 (ip), vehicle: DMSO 88 % of control | dose: 50.0 mg/kg/injection, schedule: Q04DX003 (ip), vehicle: DMSO 95 % of control | dose: 100.0 mg/kg/injection, schedule: Q04DX003 (ip), vehicle: DMSO 92 % of control and 96 % of control

CCCCCOc1nccc(N)n1
inactive: dose: 25.0 mg/kg/injection, schedule: Q01DX001 (ip), vehicle: saline with Tween-80 105 % of control | dose: 50.0 mg/kg/injection, schedule: Q01DX001 (ip), vehicle: saline with Tween-80 92 % of control | [7] 95 % of control

Cc1ccc(OCCBr)cc1
inactive: [8] 93 % of control | dose: 100.0 mg/kg/injection, schedule: Q04DX003 (ip), vehicle: saline with Tween-80 100 % of control | [5] 101 % of control | dose: 200.0 mg/kg/injection, schedule: Q04DX003 (ip), vehicle: saline with Tween-80 107 % of control | dose: 400.0 mg/kg/injection, schedule: Q04DX003 (ip), vehicle: saline with Tween-80 98 % of control

c1ccc2oc(CCCCc3nc4ccccc4o3)nc2c1
inactive: [8] 91 % of control | [3] 102 % of control | [5] 102 % of control | [4] 104 % of control | [9] 92 % of control | [10] 102 % of control

O=[N+]([O-])c1cc(Cl)ccc1N1CCCCC1
inactive: [11] 97 % of control | [12] 98 % of control | [13] 106 % of control

COC1CN(C)C(=Nc2cccc3ccccc23)S1 (stereo unspecified)
inactive: dose: 100.0 mg/kg/injection, schedule: Q01DX009 (ip), vehicle: other 100 % of control | dose: 100.0 mg/kg/injection, schedule: Q04DX003 (ip), vehicle: other 103 % of control | dose: 200.0 mg/kg/injection, schedule: Q01DX009 (ip), vehicle: other 94 % of control | dose: 200.0 mg/kg/injection, schedule: Q04DX003 (ip), vehicle: other 95 % of control | dose: 400.0 mg/kg/injection, schedule: Q01DX009 (ip), vehicle: other 97 % of control | dose: 400.0 mg/kg/injection, schedule: Q04DX003 (ip), vehicle: other 92 % of control

Cc1nc2ccc(N(C)C)cc2c2c1Cc1c(C)nc3ccc(N(C)C)cc3c1O2
inactive: [11] 95 % of control | [12] 92 % of control | [13] 110 % of control

CCc1cc(C(C)(C)C)c(O)c(C(C)(C)C)c1
inactive: [7] 95 % of control | dose: 200.0 mg/kg/injection, schedule: Q01DX001 (ip), vehicle: saline with Tween-80 102 % of control | dose: 400.0 mg/kg/injection, schedule: Q01DX001 (ip), vehicle: saline with Tween-80 95 % of control

O=[N+]([O-])c1ccc(SCN(CSc2ccc([N+](=O)[O-])cc2)Cc2ccccc2)cc1
inactive: [1] 96 % of control | [2] 102 % of control | [6] 90 % of control

CCOCCOCCCNCc1cnc2nc(N)nc(N)c2n1
inactive: dose: 10.0 mg/kg/injection, schedule: Q01DX009 (ip), vehicle: saline 97 % of control | dose: 20.0 mg/kg/injection, schedule: Q01DX009 (ip), vehicle: saline 103 % of control | dose: 40.0 mg/kg/injection, schedule: Q01DX009 (ip), vehicle: saline 103 % of control

CC(=O)c1c(C)[nH]c2ccc(NS(=O)(=O)N(C)C)cc12
inactive: dose: 75.0 mg/kg/injection, schedule: Q04DX003 (ip), vehicle: Klucel (hydroxypropylcellulose) (HPC) 96 % of control | dose: 150.0 mg/kg/injection, schedule: Q04DX003 (ip), vehicle: Klucel (hydroxypropylcellulose) (HPC) 102 % of control | dose: 300.0 mg/kg/injection, schedule: Q04DX003 (ip), vehicle: Klucel (hydroxypropylcellulose) (HPC) 100 % of control

CC(C(=O)N1c2ccccc2Sc2ccccc21)[N+]1(C)CCCC1 (stereo unspecified)
inactive: dose: 3.12 mg/kg/injection, schedule: Q01DX009 (ip), vehicle: saline 97 % of control | [14] 103 % of control | [15] 102 % of control | [16] 102 % of control | [17] 107 % of control | dose: 50.0 mg/kg/injection, schedule: Q01DX009 (ip), vehicle: saline 91 % of control | [18] 91 % of control

N=C(N)SC/C=C/CSC(=N)N
inactive: [17] 106 % of control | [18] 96 % of control | [19] 103 % of control and 88 % of control

Nc1n[nH]c(C(=O)O)n1
inactive: [8] 98 % of control | [3] 107 % of control | [5] 107 % of control | [4] 93 % of control | [9] 105 % of control | [10] 93 % of control

CN(C)c1nc(N)nc(Nc2ccc(Br)cc2)c1N=O
inactive: dose: 50.0 mg/kg/injection, schedule: Q01DX001 (ip), vehicle: carboxymethylcellulose (CMC) 109 % of control | dose: 100.0 mg/kg/injection, schedule: Q01DX001 (ip), vehicle: carboxymethylcellulose (CMC) 95 % of control | [1] 105 % of control | dose: 100.0 mg/kg/injection, schedule: Q01DX009 (ip), vehicle: saline 107 % of control | [19] 107 % of control | dose: 200.0 mg/kg/injection, schedule: Q01DX001 (ip), vehicle: carboxymethylcellulose (CMC) 103 % of control | [2] 116 % of control | dose: 200.0 mg/kg/injection, schedule: Q01DX009 (ip), vehicle: saline 119 % of control | dose: 200.0 mg/kg/injection, schedule: Q04DX003 (ip), vehicle: saline 98 % of control | dose: 400.0 mg/kg/injection, schedule: Q01DX001 (ip), vehicle: carboxymethylcellulose (CMC) 95 % of control | [6] 116 % of control | dose: 400.0 mg/kg/injection, schedule: Q01DX009 (ip), vehicle: saline 109 % of control | dose: 400.0 mg/kg/injection, schedule: Q04DX003 (ip), vehicle: saline 96 % of control

C=C(Br)CNC(=O)NCC(=C)Br
inactive: [11] 105 % of control | [12] 100 % of control | [13] 105 % of control

O=C(OC(=O)c1ccc([N+](=O)[O-])cc1)c1ccc([N+](=O)[O-])cc1
inactive: dose: 100.0 mg/kg/injection, schedule: Q01DX009 (sc), vehicle: olive oil, sesame oil, peanut oil 104 % of control | dose: 100.0 mg/kg/injection, schedule: Q04DX003 (sc), vehicle: olive oil, sesame oil, peanut oil 98 % of control | dose: 200.0 mg/kg/injection, schedule: Q01DX009 (sc), vehicle: olive oil, sesame oil, peanut oil 106 % of control | dose: 200.0 mg/kg/injection, schedule: Q04DX003 (sc), vehicle: olive oil, sesame oil, peanut oil 98 % of control | dose: 400.0 mg/kg/injection, schedule: Q01DX009 (sc), vehicle: olive oil, sesame oil, peanut oil 118 % of control | dose: 400.0 mg/kg/injection, schedule: Q04DX003 (sc), vehicle: olive oil, sesame oil, peanut oil 101 % of control

O=Cc1ccc(O)c(CN2CCCCC2)c1
inactive: [14] 94 % of control | dose: 6.25 mg/kg/injection, schedule: Q04DX003 (ip), vehicle: saline 100 % of control | [15] 107 % of control | dose: 12.5 mg/kg/injection, schedule: Q04DX003 (ip), vehicle: saline 96 % of control | [16] 96 % of control | [17] 103 % of control

Cc1c(Cl)ccc2c(=O)c(C(=O)O)c[nH]c12
inactive: [3] 95 % of control | [4] 103 % of control | [10] 97 % of control
